{
  "source": "patent US7026466B1",
  "about": "“Serotonin-gated anion channel” (Massachusetts Institute of Technology, priority 1999, dated 2006)",
  "key": {"[1]": {"molecular_target": "MOD-1 channel (Caenorhabditis elegans, UniProt Q9GQ00)", "sequence (Q9GQ00 whole entry, looked up)": "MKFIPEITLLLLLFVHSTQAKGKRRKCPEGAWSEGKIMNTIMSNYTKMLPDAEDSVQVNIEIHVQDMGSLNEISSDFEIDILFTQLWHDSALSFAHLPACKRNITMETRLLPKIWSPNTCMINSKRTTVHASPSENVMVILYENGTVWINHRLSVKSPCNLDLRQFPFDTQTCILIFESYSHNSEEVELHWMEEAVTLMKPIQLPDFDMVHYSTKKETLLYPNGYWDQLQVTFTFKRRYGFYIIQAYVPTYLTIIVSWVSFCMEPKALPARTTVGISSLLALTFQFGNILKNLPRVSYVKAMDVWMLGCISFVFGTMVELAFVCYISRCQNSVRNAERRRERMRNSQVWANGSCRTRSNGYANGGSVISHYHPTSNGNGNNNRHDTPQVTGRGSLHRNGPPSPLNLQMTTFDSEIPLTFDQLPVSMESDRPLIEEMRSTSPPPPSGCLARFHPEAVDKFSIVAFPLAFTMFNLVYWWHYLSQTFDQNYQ", "assay": "Voltage clamp of MOD-1 heterologously expressed in Xenopus oocytes or HEK cells", "type": "cell-based, C. elegans"}, "[2]": {"molecular_target": "T1, 5-HT3a channel (Homo sapiens, UniProt P46098)", "T1 sequence (P46098 24-478)": "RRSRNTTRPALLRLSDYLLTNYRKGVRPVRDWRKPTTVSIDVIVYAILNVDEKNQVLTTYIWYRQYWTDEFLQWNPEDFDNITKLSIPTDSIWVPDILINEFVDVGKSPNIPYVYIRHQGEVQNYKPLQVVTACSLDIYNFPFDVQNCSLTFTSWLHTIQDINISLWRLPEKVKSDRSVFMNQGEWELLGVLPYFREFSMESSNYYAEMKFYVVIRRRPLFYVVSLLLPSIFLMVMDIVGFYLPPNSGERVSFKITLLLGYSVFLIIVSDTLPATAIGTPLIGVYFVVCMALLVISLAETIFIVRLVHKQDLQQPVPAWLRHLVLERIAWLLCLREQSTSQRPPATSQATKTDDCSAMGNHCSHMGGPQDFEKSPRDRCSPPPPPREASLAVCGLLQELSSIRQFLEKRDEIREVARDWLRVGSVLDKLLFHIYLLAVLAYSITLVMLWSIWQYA"}, "[3]": {"system": "C. elegans", "assay": "Enhanced slowing response (locomotion) of food-deprived C. elegans on a bacterial lawn", "type": "in vivo"}, "[4]": {"system": "MOD-1-like serotonin-activated current", "assay": "Voltage clamp of Xenopus oocytes injected with rat brain RNA (MOD-1-like response)", "type": "cell-based", "conditions": "−70 mV, BAPTA-AM 200 μM", "description": "A method to identify a mammalian serotonin-gated chloride channel was carried out essentially as described above. Oocytes were injected with rat cortex RNA. […] The oocytes were then screened under a voltage clamp, in a buffer containing 96 mM NaCl, 2 mM KCl, 0.3 mM CaCl2, 1 mM MgCl2, and 5 mM HEPES (pH 7.5), and with 100 mM Tris added.\nIn additional studies, oocytes were injected with poly(A)+ RNA from rat cortex, striatum, or thalamus, as described above. The oocytes were bathed in 200 μM BAPTA-AM for 2 hours, and were then screened under a voltage clamp, in a bath solution containing 2 mM Co^2+ to block 5-HT3a responses. […] FIG. 12 is a representative time trace of a MOD-1-like response from an oocytes injected with rat cortex RNA. These MOD-1-like currents were not detected in oocytes injected with rat RNA from spinal cord, heart, lung, or testes."}, "[5]": {"molecular_target": "T1, 5-HT3a channel", "conditions": "read-out: IC 50, competitive antagonist of the 5-HT3a channel; cited from earlier work"}, "[6]": {"conditions": "pretreatment of wild-type C. elegans, food-deprived"}},
  "note": "Read-outs that look alike come from different tables or passages of the source.",
  "data": [
    {"compound": "CC(=O)OCOC(=O)CN(CC(=O)OCOC(C)=O)c1ccccc1OCCOc1ccccc1N(CC(=O)OCOC(C)=O)CC(=O)OCOC(C)=O", "note": "[BAPTA-AM]", "values": [
      {"measurement": "effect on the function of MOD-1", "setting": "[1]; approximately 200 μM in the bath", "value": "does not affect the function of MOD-1"}
    ]},
    {"compound": "NCCCC(=O)O", "note": "[GABA]", "values": [
      {"measurement": "response from the MOD-1 channel", "setting": "[1]; application of 1 mM agonist", "value": "little or no response"}
    ]},
    {"compound": "NC(CO)(CO)CO", "note": "[Tris]", "values": [
      {"measurement": "block of the 5-HT3 cation channel", "setting": "[2]; 100 mM added to buffer", "value": "completely blocks"}
    ]},
    {"compound": "NCC(=O)O", "note": "[glycine]", "values": [
      {"measurement": "response from the MOD-1 channel", "setting": "[1]", "value": "little or no response"}
    ]},
    {"compound": "CSc1ccc2c(c1)C(N1CCN(C)CC1)Cc1ccccc1S2", "note": "(centres unmarked) [methiothepin]", "values": [
      {"measurement": "effect on enhanced slowing response", "setting": "[3]; pre-treatment of mod-1 mutants", "value": "did not further affect the defective enhanced slowing response"},
      {"measurement": "effect on enhanced slowing response", "setting": "[3]; [6]", "value": "prevents food-deprived animals from exhibiting the wild-type enhanced slowing response"},
      {"measurement": "Ki", "setting": "[1]; MOD-1 in oocytes, read-out: approximate Ki, inhibition of the MOD-1 channel", "value": "~32", "unit": "µM"}
    ]},
    {"compound": "CN1CCN2c3ccccc3Cc3ccccc3C2C1", "note": "(centres unmarked) [mianserin]", "values": [
      {"measurement": "effect on enhanced slowing response", "setting": "[3]; pre-treatment of mod-1 mutants", "value": "did not further affect the defective enhanced slowing response"},
      {"measurement": "effect on enhanced slowing response", "setting": "[3]; [6]", "value": "prevents food-deprived animals from exhibiting the wild-type enhanced slowing response"}
    ]},
    {"compound": "NCCc1c[nH]c2ccc(O)cc12", "note": "[serotonin]", "values": [
      {"measurement": "oocytes with inward currents", "setting": "[4]; rat cortex RNA, 1 μM serotonin for 1 minute, 100 mM Tris", "value": "about 10%"},
      {"measurement": "oocytes with inward currents", "setting": "[4]; rat cortex, striatum or thalamus poly(A)+ RNA, 1 μM serotonin, 2 mM Co2+", "value": "approximately 33%"},
      {"measurement": "response of 5-HT3a channels", "setting": "[2]; 1 μM serotonin", "value": "no response is detectable"},
      {"measurement": "response of 5-HT3a channels", "setting": "[2]; 10 μM serotonin", "value": "robust current"},
      {"measurement": "concentration of agonist at which serotonin-gated currents are detectable", "setting": "[2]; 5-HT3 receptors, HEK cell and Xenopus oocyte expression systems", "value": "> 10", "unit": "µM"},
      {"measurement": "current elicited", "setting": "[1]; 100 nM, holding potential −70 mV", "value": "large inward currents"},
      {"measurement": "concentration of agonist at which serotonin-gated currents are detectable", "setting": "[1]; MOD-1 receptors, HEK cell and Xenopus oocyte expression systems", "value": "10 to 50", "unit": "nM"}
    ]},
    {"compound": "σ-conotoxin GVIIIA", "values": [
      {"measurement": "IC50", "setting": "[5]", "value": "~0.05", "unit": "µM"}
    ]}
  ]
}
